Assay results as given in ChEMBL document CHEMBL3217732, “Inhibition of Pseudomonas aeruginosa biofilms with a glycopeptide dendrimer containing D-amino acids” (Medchemcomm, 2011).
Activity calls are given as the source filed them. The rule behind the calls is not given here. Where a SMILES comes first, the peptide text is derived from it. Bridges are numbered along the chain shown (N, C = ends). Roman numbers before positions name the chains, in order. Side-chain parts run from the residue outwards. The star is where a group is joined. Acetyl(C-α-L-Fucp) = C[C@@H]1O[C@@H](CC(=O)*)[C@@H](O)[C@H](O)[C@@H]1O

How the values were obtained:
Pseudomonas aeruginosa [1] = test: Ratio of L-fucose IC50 to compound IC50 for Pseudomonas aeruginosa lectin LecB after 1 hr by enzyme-linked lectin assay
[2] = Binding affinity to Pseudomonas aeruginosa lectin LecB after 1 hr by enzyme-linked lectin assay
[3] = Stability of the compound in 100 mM of tris buffer at pH 7.5 after 48 hrs in presence of chymotrypsin; type: ADME; settings: isolated protein, pH 7.5, 48 h
Pseudomonas aeruginosa [4] = test: Ratio of FD2 IC50 to compound IC50 for Pseudomonas aeruginosa lectin LecB after 1 hr by enzyme-linked lectin assay
Pseudomonas aeruginosa [5] = test: Inhibition of wild type Pseudomonas aeruginosa PAO1 biofilm formation at 0.05 mM after 24 hrs using acridine orange staining by steel coupon assay; type: functional, organism-based
Serum = test: Metabolic stability in human serum; type: ADME, cell-free
Pseudomonas aeruginosa [6] = test: Inhibition of Pseudomonas aeruginosa clinical isolate A014 biofilm formation at 0.05 mM after 24 hrs using acridine orange staining by steel coupon assay; type: functional, organism-based
Pseudomonas aeruginosa [7] = test: Inhibition of Pseudomonas aeruginosa clinical isolate A021 biofilm formation at 0.05 mM after 24 hrs using acridine orange staining by steel coupon assay; type: functional, organism-based
Pseudomonas aeruginosa [8] = test: Inhibition of Pseudomonas aeruginosa clinical isolate A035 biofilm formation at 0.05 mM after 24 hrs using acridine orange staining by steel coupon assay; type: functional, organism-based
[9] = Stability of the compound in 100 mM of tris buffer at pH 7.5 after 48 hrs in presence of trypsin; type: ADME; settings: isolated protein, pH 7.5, 48 h
[10] = Stability of the compound in 100 mM of tris buffer at pH 7.5 after 30 mins in presence of chymotrypsin; type: ADME; settings: isolated protein, pH 7.5, 0.5 h
[11] = Stability of the compound in 100 mM of tris buffer at pH 7.5 after 30 mins in presence of trypsin; type: ADME; settings: isolated protein, pH 7.5, 0.5 h
[12] = Half life in human serum; type: ADME, cell-free

Ratio IC50 (Pseudomonas aeruginosa [1])	IC50 [2]	Stability [3]	Ratio IC50 (Pseudomonas aeruginosa [4])	Stability (Serum)	Stability [9]	Stability [10]	Stability [11]	half-life [12]	Structure (SMILES)	inhibition (Pseudomonas aeruginosa [5])	inhibition (Pseudomonas aeruginosa [6])	inhibition (Pseudomonas aeruginosa [7])	inhibition (Pseudomonas aeruginosa [8])
73.3	150 nM	–	–	–	–	–	–	–	CC(C)C[C@H](NC(=O)[C@H](Cc1cnc[nH]1)NC(=O)[C@H](CCCCNC(=O)[C@H](CC(C)C)NC(=O)[C@H](CCCCN)NC(=O)[C@H](Cc1ccccc1)NC(=O)[C@H](CCCCNC(=O)[C@H](CC(C)C)NC(=O)[C@@H]1CCCN1C(=O)[C@H](CCCCN)NC(=O)C[C@@H]1O[C@@H](C)[C@@H](O)[C@@H](O)[C@@H]1O)NC(=O)[C@H](CC(C)C)NC(=O)[C@@H]1CCCN1C(=O)[C@H](CCCCN)NC(=O)C[C@@H]1O[C@@H](C)[C@@H](O)[C@@H](O)[C@@H]1O)NC(=O)[C@H](CC(C)C)NC(=O)[C@H](CCCCN)NC(=O)[C@H](Cc1ccccc1)NC(=O)[C@H](CCCCNC(=O)[C@H](CC(C)C)NC(=O)[C@@H]1CCCN1C(=O)[C@H](CCCCN)NC(=O)C[C@@H]1O[C@@H](C)[C@@H](O)[C@@H](O)[C@@H]1O)NC(=O)[C@H](CC(C)C)NC(=O)[C@@H]1CCCN1C(=O)[C@H](CCCCN)NC(=O)C[C@@H]1O[C@@H](C)[C@@H](O)[C@@H](O)[C@@H]1O)C(N)=O	–	–	–	–
1	11000 nM	–	–	–	–	–	–	–	C[C@H](O)[C@@H](O)[C@@H](O)[C@H](O)C=O [L-FUCOSE]	–	–	–	–
16.7	660 nM	Stable	4.7	Stable	Stable	–	–	–	CC(C)C[C@@H](NC(=O)[C@@H](Cc1cnc[nH]1)NC(=O)[C@@H](CCCCNC(=O)[C@@H](CC(C)C)NC(=O)[C@@H](CCCCN)NC(=O)[C@@H](Cc1ccccc1)NC(=O)[C@@H](CCCCNC(=O)[C@@H](CC(C)C)NC(=O)[C@H]1CCCN1C(=O)[C@@H](CCCCN)NC(=O)C[C@@H]1O[C@@H](C)[C@@H](O)[C@@H](O)[C@@H]1O)NC(=O)[C@@H](CC(C)C)NC(=O)[C@H]1CCCN1C(=O)[C@@H](CCCCN)NC(=O)C[C@@H]1O[C@@H](C)[C@@H](O)[C@@H](O)[C@@H]1O)NC(=O)[C@@H](CC(C)C)NC(=O)[C@@H](CCCCN)NC(=O)[C@@H](Cc1ccccc1)NC(=O)[C@@H](CCCCNC(=O)[C@@H](CC(C)C)NC(=O)[C@H]1CCCN1C(=O)[C@@H](CCCCN)NC(=O)C[C@@H]1O[C@@H](C)[C@@H](O)[C@@H](O)[C@@H]1O)NC(=O)[C@@H](CC(C)C)NC(=O)[C@H]1CCCN1C(=O)[C@@H](CCCCN)NC(=O)C[C@@H]1O[C@@H](C)[C@@H](O)[C@@H](O)[C@@H]1O)C(N)=O	Active	Active	Active	Active
78.6	140 nM	–	–	–	–	Unstable	Unstable	60 h	CC[C@H](C)[C@H](NC(=O)[C@H](Cc1cnc[nH]1)NC(=O)[C@H](CCCCNC(=O)[C@@H](NC(=O)[C@H](CCCCN)NC(=O)[C@H](Cc1ccccc1)NC(=O)[C@H](CCCCNC(=O)[C@H](CC(C)C)NC(=O)[C@@H]1CCCN1C(=O)[C@H](CCCCN)NC(=O)C[C@@H]1O[C@@H](C)[C@@H](O)[C@@H](O)[C@@H]1O)NC(=O)[C@H](CC(C)C)NC(=O)[C@@H]1CCCN1C(=O)[C@H](CCCCN)NC(=O)C[C@@H]1O[C@@H](C)[C@@H](O)[C@@H](O)[C@@H]1O)[C@@H](C)CC)NC(=O)[C@@H](NC(=O)[C@H](CCCCN)NC(=O)[C@H](Cc1ccccc1)NC(=O)[C@H](CCCCNC(=O)[C@H](CC(C)C)NC(=O)[C@@H]1CCCN1C(=O)[C@H](CCCCN)NC(=O)C[C@@H]1O[C@@H](C)[C@@H](O)[C@@H](O)[C@@H]1O)NC(=O)[C@H](CC(C)C)NC(=O)[C@@H]1CCCN1C(=O)[C@H](CCCCN)NC(=O)C[C@@H]1O[C@@H](C)[C@@H](O)[C@@H](O)[C@@H]1O)[C@@H](C)CC)C(N)=O (I: {Acetyl(C-α-L-Fucp)}-KPLK([Leu-Pro-Lys-Acetyl(C-α-L-Fucp)])FKIKHI-NH2 / II: {Acetyl(C-α-L-Fucp)}-KPLK([Leu-Pro-Lys-Acetyl(C-α-L-Fucp)])FKI; amide I:8-II:C)	–	–	–	–
